Consider two compounds from US12421179B2, “Production method for radiolabeled aryl compound” (OSAKA UNIVERSITY, priority 2017, dated 2025).

In experiment [1] the test system is C6 glioma cell derived from rat. Nature of the experiment: Glioma cell uptake experiment. The experiment is classed as cell-based. As to conditions: for cell uptake reduced by LAT1 inhibitor (BCH) to fraction of uptake: 100 mM BCH addition group; for cell uptake reduced by competitive inhibitor (Phe) to fraction of uptake: 1% Phe addition group; for specificity of cell uptake (via LAT1): concluded from Phe and BCH inhibition; for cell uptake (amount of radioactivity taken up intracellularly): inhibitor-free group, amino acid-free HBSS medium. The protocol: The concentration of the 4-211At-L-phenylalanine (4-^211At-Phe) solution prepared in Example 2 and the 3-^211At-D,L-phenylalanine (3-^211At-Phe) solution prepared in Example 7 were each adjusted to 5 MBq/2 mg·ml. C6 glioma cell derived from rat was seeded on each well of 24-well plate by 5×10^5 cells/well, is and the cells were used in the next day's experiment (cell number: about 1×10^6 cells/well). Before the experiment, the medium was replaced with an amino acid-free HBSS medium (0.5 ml/well). 4-^211At-Phe or 3-^211At-Phe was added to each well of the plate by 10 μl, and the wells were divided into three groups of inhibitor-free group, 1% Phe addition group (competitive inhibitor) and 100 mM BCH addition group (LAT1 inhibitor), and incubated at 37° C. for 30 minutes or 60 minutes. After the incubation, the culture solution was removed, and the cells were washed with PBS, and lysed, and the amount of radioactivity taken up intracellularly was measured. […] Moreover, the cell uptake after 60 minutes was reduced, compared to that after 30 minutes. The competitive inhibitor (Phe) reduced the cell uptake of 4-^211At-Phe and 3-^211At-Phe to ½ to ⅓, and LAT1 inhibitor (BCH) reduced the cell uptake of 4-^211At-Phe and 3-^211At-Phe to ¼ to ⅛. […] Especially, the cell uptake of 3-^211At-Phe was more than that of 4-^211At-Phe, and therefore, 3-211At-Phe can be further expected for the above-mentioned application.

A further experiment relates to C6 glioma tumor. Description: SPECT imaging of C6 glioma-transplanted rat. Type of experiment: in vivo. As to conditions: 1 MBq, tail vein; 30 minutes and 3 hours after administration; tumor in both flanks. The method, then: The 4-^211At-L-phenylalanine (4-^211At-Phe) (1 MBq) prepared in Example 2 was administered to the tail vein of the glioma-transplanted rat, and the rat was imaged by SPECT camera (E-cam, Siemens). In both images, the is accumulation of 4-^211At-Phe in the tumor (both flanks, indicated by arrows in the figure) was observed. Therefore, 4-^211At-Phe can be expected to be applied to RI internal therapy or diagnosis for cancer.

As to `NC(Cc1cccc([211At])c1)C(=O)O` (racemic) [3-^211At-Phe, 3-^211At-D,L-phenylalanine], in experiment [1], the “cell uptake reduced by LAT1 inhibitor (BCH) to fraction of uptake” value is listed as “¼ to ⅛”, the “cell uptake reduced by competitive inhibitor (Phe) to fraction of uptake” value is on record as “½ to ⅓” and the “specificity of cell uptake (via LAT1)” value is listed as “specifically taken up by the cells via LAT1”. Also, the “cell uptake after 60 minutes compared to that after 30 minutes” value in experiment [1] (C6 glioma cells, 37° C.) was “reduced”. Also, in experiment [1] (C6 glioma cells, 37° C., 30 or 60 minutes), the “cell uptake compared with 4-^211At-Phe” value is on record as “slightly more than that of 4-^211At-Phe”. For the same compound, the “cell uptake (amount of radioactivity taken up intracellularly)” value in experiment [1] (37° C., 30 or 60 minutes) is “taken up by the cell”. Further, in experiment [1] (summary statement in the description), the “uptake by cancer cells (general statement)” value is listed as “taken up in large amounts by cancer cells”.
As to `N[C@@H](Cc1ccc([211At])cc1)C(=O)O` [4-^211At-Phe, 4-^211At-L-phenylalanine], the “accumulation in the tumor (SPECT images)” value with C6 glioma tumor is reported as “observed”. Further, in experiment [1], the “cell uptake reduced by LAT1 inhibitor (BCH) to fraction of uptake” value is given as “¼ to ⅛”, the “cell uptake reduced by competitive inhibitor (Phe) to fraction of uptake” value is listed as “½ to ⅓” and the “specificity of cell uptake (via LAT1)” value was “specifically taken up by the cells via LAT1”. Moreover, the “cell uptake after 60 minutes compared to that after 30 minutes” value in experiment [1] (C6 glioma cells, 37° C.) is reported as “reduced”. The “cell uptake (amount of radioactivity taken up intracellularly)” value in experiment [1] (37° C., 30 or 60 minutes) is “taken up by the cell”.
